Where two headings read alike, the source gives them in different places.
Columns and labels:
KCC2 = target: T1, KCC2 (Homo sapiens, UniProt Q9H2X9); assay: inhibitory activity measured in vitro on KCC2; assay type: biochemical
T1 sequence (Q9H2X9 1-1139): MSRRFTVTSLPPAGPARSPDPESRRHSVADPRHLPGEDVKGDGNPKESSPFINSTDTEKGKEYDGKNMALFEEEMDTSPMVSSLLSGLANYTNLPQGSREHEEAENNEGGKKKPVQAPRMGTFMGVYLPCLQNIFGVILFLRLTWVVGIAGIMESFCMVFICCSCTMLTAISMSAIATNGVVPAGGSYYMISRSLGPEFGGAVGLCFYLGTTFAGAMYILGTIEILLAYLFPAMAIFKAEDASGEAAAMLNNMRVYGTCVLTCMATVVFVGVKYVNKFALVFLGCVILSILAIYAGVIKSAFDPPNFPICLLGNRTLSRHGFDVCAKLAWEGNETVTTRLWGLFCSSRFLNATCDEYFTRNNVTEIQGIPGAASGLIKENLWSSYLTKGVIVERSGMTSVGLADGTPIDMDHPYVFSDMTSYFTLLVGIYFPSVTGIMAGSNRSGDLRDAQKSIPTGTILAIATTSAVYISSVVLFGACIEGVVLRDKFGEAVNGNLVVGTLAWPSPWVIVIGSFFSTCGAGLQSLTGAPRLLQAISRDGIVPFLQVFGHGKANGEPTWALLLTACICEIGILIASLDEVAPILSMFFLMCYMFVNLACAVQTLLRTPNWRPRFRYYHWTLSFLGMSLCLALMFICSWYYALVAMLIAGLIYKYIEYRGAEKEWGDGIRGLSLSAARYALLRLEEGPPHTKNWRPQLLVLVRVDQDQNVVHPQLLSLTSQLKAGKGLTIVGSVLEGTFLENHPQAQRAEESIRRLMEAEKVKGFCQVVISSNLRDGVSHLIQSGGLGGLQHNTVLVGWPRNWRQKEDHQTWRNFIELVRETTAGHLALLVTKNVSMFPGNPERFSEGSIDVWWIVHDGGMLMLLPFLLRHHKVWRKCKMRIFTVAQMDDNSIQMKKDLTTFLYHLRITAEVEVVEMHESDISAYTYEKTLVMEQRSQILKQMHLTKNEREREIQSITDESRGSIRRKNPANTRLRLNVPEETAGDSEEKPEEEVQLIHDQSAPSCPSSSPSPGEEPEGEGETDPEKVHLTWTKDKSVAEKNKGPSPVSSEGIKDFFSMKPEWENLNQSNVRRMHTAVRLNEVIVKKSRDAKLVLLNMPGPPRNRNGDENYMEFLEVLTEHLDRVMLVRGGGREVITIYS

[1] = test system: mice C57BL/6J aged >24 months; assay: open field test after diazepam in elderly and young mice; assay type: in vivo; conditions: elderly mice (>24 months), diazepam 2 mg/kg, compared to elderly mice treated with vehicle or young mice treated with diazepam
Source text: FIG. 2 illustrates the evaluation of the effect of benzodiazepines in elderly mice which is indicative of a potentiated GABAergic transmission. a) Quantification of the immobility time during the open field test of mice treated with vehicle (young, n=7, elderly, n=6) or diazepam (young, n=7, elderly, n=7) (two-way ANOVA, Tukey post hoc test, *** P<0.001). b) Quantification of the distance travelled during the open field test by mice treated with vehicle (young, n=7, elderly, n=6) or diazepam (young, n=7, elderly, n=7) (two-way ANOVA, Tukey post hoc test, ** P<0.01, *** P<0.001).
In fact, benzodiazepines are positive allosteric modulators of GABAAR. Benzodiazepines are commonly used as anxiolytic drugs, but can produce anxiogenic or highly sedative effects depending on the polarity of GABAergic transmission. To test the reaction of elderly mice to benzodiazepines, mice C57BL/6J aged >24 months and 2-month old controls C57BL/6J were treated with diazepam (2 mg/kg in saline solution) or vehicle (2% DMSO in saline solution). The open field test was then carried out to evaluate locomotor activity and the level of anxiety of the mice tested. […] This is indicative of an over-sedation reaction of the diazepam in the elderly mice, which may reflect the presence of hyper-inhibitory GABAergic transmission. This evidence is in accordance with the up-regulation of KCC2 (FIG. 1b).

elderly mice = assay: novel object recognition (NOR) test in elderly mice; assay type: in vivo; conditions: 1 mg/kg i.p., versus vehicle
Source text: FIG. 3 illustrates the evaluation of the efficacy of compound 32 (KCC2 inhibitor) to restore impaired memory in elderly mice. a) Quantification of the discrimination index of the NOR test in young (n=13) and elderly (n=10) mice (two tailed t-test, ** P<0.01). b) Quantification of the discrimination index of the NOR test in mice treated with vehicle (young, n=12, elderly, n=9) or compound 32 (young, n=10, elderly, n=6) (two-way ANOVA, Tukey post hoc test, ** P<0.01, ** P<0.001).
To evaluate memory capacity in the elderly mice, the novel object recognition (NOR) test was conducted. This test evaluates the long-term object recognition memory by measuring the capacity of the mice to recognize a novel object compared to familiar objects. […] Subsequently, to test the ability of the non-selective KCC2 inhibitor, Compound 32, to restore poor memory, the NOR test was conducted in the presence of the drug. The mice were treated with compound 32 (1 mg/kg i.p.) or with the vehicle.

[2] = in vitro on KCC2, read-out: IC50

Compound | IC50 (KCC2; [2]) [µM] | other results
CC(=O)N1CCCC1(Cc1ccccc1)C(=O)OCc1ccccc1 (stereo not shown) [Compound 21] | 0.79 | –
CC(=O)N1CCCC1(Cc1ccccc1)C(=O)OCc1ccc(S(C)(=O)=O)cc1 (stereo not shown) [Compound 54] | > 100 | –
CC(=O)N1CCCC1(Cc1ccccc1)C(=O)OCc1ccc(C(F)(F)F)cc1 (stereo not shown) [Compound 53] | 5 | –
CC(=O)N1CCCC1(Cc1ccccc1)C(=O)OCc1ccccc1 (stereo not shown) [Compound 66] | 20 | –
CCC(=O)N1CCCC1(Cc1ccccc1)C(=O)OCc1ccccc1 (stereo not shown) [Compound 60] | 1.2 | –
CC(=O)N1CCCC1(Cc1cccc(C#N)c1)C(=O)OCc1ccccc1 (stereo not shown) [Compound 34] | 0.32 | –
CC(=O)N1CCCC1(Cc1ccccc1)C(=O)NCc1ccccc1 (stereo not shown) [Compound 41] | 100 | –
O=C1CCCC2CCC(Cc3ccccc3)(C(=O)OCc3ccccc3)N12 (stereo not shown) [Compound 69] | 1 | –
CC(=O)N1CCCC1(CCc1ccccc1)C(=O)OCc1ccccc1 (stereo not shown) [Compound 22] | 8 | –
CC(=O)N1CCCC1(Cc1ccccc1)C(=O)OCc1ccc(Cl)cc1 (stereo not shown) [Compound 51] | 1.3 | –
CC(=O)N1CCCC1(Cc1ccc(C)cc1)C(=O)OCc1ccccc1 (stereo not shown) [Compound 27] | 0.79 | –
O=C(c1ccccc1)N1CCCC1(Cc1ccccc1)C(=O)OCc1ccccc1 (stereo not shown) [Compound 62] | 4 | –
COc1ccc(CC2(C(=O)OCc3ccccc3)CCCN2C(C)=O)cc1C(F)(F)F (stereo not shown) [Compound 39] | 0.05 | –
CC(=O)N1CCCC1(Cc1ccc(C#N)cc1)C(=O)OCc1ccccc1 (stereo not shown) [Compound 33] | 0.16 | –
CC(=O)N1CCCC1(Cc1ccccc1)C(=O)O (stereo not shown) [Compound 43] | > 100 | –
CCNC(=O)N1CCCC1(Cc1ccccc1)C(=O)OCc1ccccc1 (stereo not shown) [Compound 59] | 2 | –
CC(=O)N1CCCC1(Cc1ccc(C(F)(F)F)cc1)C(=O)OCc1ccccc1 (stereo not shown) [Compound 29] | 0.63 | –
COc1ccc(CC2(C(=O)OCc3ccccc3)CCCN2C(C)=O)cc1 (stereo not shown) [Compound 28] | 0.4 | –
CC(=O)N1CCCC1(Cc1ccccc1)C(=O)CCc1ccccc1 (stereo not shown) [Compound 63] | 0.3 | –
CC(=O)N1CCCC1(Cc1ccc(F)cc1)C(=O)CCc1ccc(F)cc1 (stereo not shown) [Compound 64] | 0.2 | –
O=C(C1CC1)N1CCCC1(Cc1ccccc1)C(=O)OCc1ccccc1 (stereo not shown) [Compound 61] | 0.32 | –
CS(=O)(=O)N1CCCC1(Cc1ccccc1)C(=O)OCc1ccccc1 (stereo not shown) [Compound 57] | 1.6 | –
COC(=O)C1(Cc2ccccc2)CCCN1C(C)=O (stereo not shown) [Compound 44] | > 100 | –
CCN1CCCC1(Cc1ccccc1)C(=O)OCc1ccccc1 (stereo not shown) [Compound 56] | > 100 | –
CC(=O)N1CCCC1(Cc1cccc(C(F)(F)F)c1)C(=O)OCc1ccccc1 (stereo not shown) [Compound 37] | 0.08 | –

Compound | IC50 (KCC2; [2]) [µM] | other results
CC(=O)N1CCCC1(Cc1ccccc1C#N)C(=O)OCc1ccccc1 (stereo not shown) [Compound 35] | 5 | –
CC(=O)N1CCCC1(Cc1ccccc1)C(=O)OCc1ccncc1 (stereo not shown) [Compound 48] | > 100 | –
CCC1(C(=O)OCc2ccccc2)CCCN1C(C)=O (stereo not shown) [Compound 23] | 2.3 | –
CC(=O)N1CCCC1(Cc1ccccc1)C(=O)OCc1ccccc1Cl (stereo not shown) [Compound 49] | 6 | –
CC(=O)N1CCCC1(Cc1cccc(S(C)(=O)=O)c1)C(=O)OCc1ccccc1 (stereo not shown) [Compound 36] | 0.25 | –
CC(=O)N1CCCC1(Cc1ccccc1)C(=O)OCCc1ccccc1 (stereo not shown) [Compound 46] | 10 | –
O=C(OCc1ccccc1)C1(Cc2ccccc2)CCCN1 (stereo not shown) [Compound 55] | > 100 | –
CC(=O)N1CCCC1(Cc1ccccc1)C1=N[C@H](c2ccccc2)CO1 (stereo partly shown) [Compound 67] | 1.3 | –
CC(=O)N1CCCC1(Cc1ccccc1)C(=O)N(C)Cc1ccccc1 (stereo not shown) [Compound 42] | 32 | –
CC(=O)N1c2ccccc2CC1(Cc1ccccc1)C(=O)OCc1ccccc1 (stereo not shown) [Compound 65] | 0.2 | –
CC(=O)N1CCCC1(Cc1ccsc1)C(=O)OCc1ccccc1 (stereo not shown) [Compound 26] | 0.79 | –
CC(=O)N1CCCC1(Cc1ccc(F)c(C(F)(F)F)c1)C(=O)OCc1ccccc1 (stereo not shown) [Compound 38] | 0.06 | –
CC(=O)N1CCCC1(CC1CCCCC1)C(=O)OCc1ccccc1 (stereo not shown) [Compound 24] | – | IC50 (KCC2; IC50, in vitro on KCC2): 4 µM
CC(=O)N1CCCC1(Cc1ccccc1)C(=O)OCc1cccc(Cl)c1 (stereo not shown) [Compound 50] | 2.5 | –
CC(=O)N1CCCC1(Cc1ccc(F)cc1C(F)(F)F)C(=O)OCc1ccccc1 (stereo not shown) [Compound 40] | 4 | –
CC(=O)N1CCCC1(Cc1ccc(F)cc1)C(=O)OCc1ccccc1 (stereo not shown) [Compound 30] | 0.2 | –
CC(=O)N1CCCC1(Cc1ccccc1)C(=O)OCC1CCCCC1 (stereo not shown) [Compound 47] | 63 | –
CN1C(=O)CN=C(c2ccccc2)c2cc(Cl)ccc21 [diazepam] | – | distance travelled during the open field test [1]: significantly lower; immobility time during the open field test [1]: significantly higher
CC(=O)N1CCCC1(Cc1ccc(S(C)(=O)=O)cc1)C(=O)OCc1ccccc1 (stereo not shown) [Compound 32] | 1 | object recognition memory (discrimination index of the NOR test) (elderly mice): significantly restored
CC(=O)N1CCCC1(Cc1ccccc1)c1nc(-c2ccccc2)co1 (stereo not shown) [Compound 68] | 12.6 | –
CC(=O)N1CCCC1(Cc1ccc(Cl)cc1)C(=O)OCc1ccccc1 (stereo not shown) [Compound 31] | 0.32 | –
CC(=O)N1CCCC1(Cc1ccncc1)C(=O)OCc1ccccc1 (stereo not shown) [Compound 25] | 2 | –
COC(=O)N1CCCC1(Cc1ccccc1)C(=O)OCc1ccccc1 (stereo not shown) [Compound 58] | 0.4 | –
CC(=O)N1CCCC1(Cc1ccccc1)C(=O)OC(C)c1ccccc1 (stereo not shown) [Compound 45] | 4 | –
CC(=O)N1CCCC1(Cc1ccccc1)C(=O)OCc1ccc(C)cc1 (stereo not shown) [Compound 52] | 0.79 | –
